# Assay results: US20150344822A1, “Decontaminant and Process for Decontamination of Chemicals from Infrastructural Materials” (priority 2014, published 2015)
# “And” between values parts separate entries of the source, which are not always exact repeats. Equal entries are not always repeated. Where two headings read alike, the source gives them in different places.
# Tests used:
# rat = details: oral (rat); cited from earlier work
# [1] = cited from earlier work
# [2] = Task 1A: surface adherence of contaminants on pipe materials, 7 days at 20-25° C.; format: physicochemical; details: comparison of Tasks 1A, 1B, 1C
# [3] = hazardous ingredient of the product; cited from earlier work
# [4] = Task 2: efficacy of decontamination agents (extraction and subsequent rinses); details: for Aqueous concentration of mercury, Extraction: extractant hypochlorite (300 mg/L), mercury input 19530.00 mg/L, adhered 7 days, 20-25° C.
# Description: The pipe materials used for subtask 2 were DIE, DIW, PVC and copper. […] Types of interactions included scrubbing, flushing, recirculation, shaking and static equilibrium.
# After equilibration, the contaminant was extracted using the various decontamination agents. […] Surfactant molecules have both hydrophilic and hydrophobic parts, and the most attractive place for them in water is at the surface where the forces of both attraction and repulsion to water can be satisfied. […] The aqueous solutions of these decontaminants were prepared using the available chemical decontaminants and diluting them to required concentration by adding DI water. Appropriate volume corrections were conducted for NaOCl considering available solution concentration of NaOCl received from the supplier.
# (§1) The sample was introduced via a peristaltic pump by pneumatic nebulization into radio frequency plasma where energy transfer processes cause desolvation, atomization, and ionization. The ions were extracted from the plasma through a pumped vacuum interface and separated on the basis of their mass-to-charge ratio by a quadrupole mass spectrometer. The ions transmitted through the quadrupole were registered by a continuous dynode electron multiplier and the ion information was processed by a data handling system.
# [5] = product as supplied; cited from earlier work
# [6] = Task 1: removal of adhered chemicals by three de-ionized water rinses and extractant; details: for Aqueous concentration of mercury, Extraction: adherence at 4-6° C.; for Aqueous concentration, Extractant: after 24 hours; for Aqueous concentration, Extractant / Aqueous concentration of mercury, Extractant: 20-25° C.; for Aqueous concentration of mercury, Extractant: after 7 days, initial 22829.8 mg/L, extractant = chemical decontaminant of the present disclosure
# Protocol: In Task 1, the pipes were rinsed immediately after the equilibrated solution was transferred into the analytical sample vials. Thereafter, de-ionized water at room temperature was used for rinsing the pipes. Three consecutive rinses were conducted using de-ionized water at room temperature. In case of aged black iron pipe, the aqueous solution was centrifuged before transferring to the sample vials to avoid entrainment of colloidal corroded iron particles in the solution. During the extraction step, the pipes were about half filled with the extraction solution and wrapped tightly. The 4″ diameter pipes were filled with 150 mL of extraction solution. The copper, PVC, and HDPE pipes were filled with 55 mL of extraction solution, while the epoxy and the aged metal pipes were filled with 85 mL of extraction solution. […] After shaking for 1 hour, the pipes were flipped in order to get contact with the entire inner surface of the pipe. The extraction solutions were transferred to the appropriate sample vial.
# as §1
# In this table, m0 and mi are the initial and final amounts of chemical in water.
# Water rinse was done to remove the weakly-bound chemicals, while the strongly-bound chemicals, if any, were extracted with stronger solvents.
molecule,measurement,setting,value
COP(=O)(OC)OC=C(Cl)Cl [Dichlorvos],LD50,rat,LD50 oral (rat) 56 to 80 mg/kg
same,Hydrolysis,[1]; at pH 4,slow
same,Hydrolysis,[1]; at pH 9,rapid
same,Half-life,[1]; between pH 4 and pH 9,20 to 80 h
O=C(O)CF [fluoroacetate],Adhesion coefficients under 7 days and room temperature condition versus 24 hours or low temperature conditions,[2],generally higher
CCCCOCCO [Butyl cellosolve],PEL,[3],25 mg/L
same,TLV,[3],25 mg/L
"OCl [Sodium Hypochlorite, Sodium hypochlorite]","Aqueous concentration of mercury, Extraction","[4]; COP (copper) pipe, listed as Hypochlorite",11.01 mg/L and 8.48 mg/L
same,"Aqueous concentration of mercury, Extraction","[4]; COP (copper) pipe, listed as hypochlorite",8.5 mg/L and 11 mg/L
same,"Aqueous concentration of mercury, Extraction",[4]; DIE pipe,133.91 mg/L and 136.16 mg/L
same,"Aqueous concentration of mercury, Extraction","[4]; DIW pipe, listed as Hypochlorite",251.05 mg/L and 315.47 mg/L
same,"Aqueous concentration of mercury, Extraction","[4]; DIW pipe, listed as hypochlorite",251 mg/L and 315 mg/L
same,"Aqueous concentration of mercury, Extraction",[4]; PVC pipe,290.19 mg/L and 172.41 mg/L
same,effectiveness in releasing / removing adhered mercury,[4]; mercury adhered on DIW and copper pipes,not effective
same,removal / recovery of contaminants compared with the other decontaminants tested,"[4]; mercury and organophosphates, solid surfaces",significantly less
same,pH,[5],~13
Mercuric chloride [Mercury],"Aqueous concentration of mercury, Extraction","[6]; Copper pipe, Mercury #1, initial 7737.5 mg/L",515.7 mg/L and 272.8 mg/L
same,"Aqueous concentration, Extractant","[6]; Copper pipe, Mercury #1, initial 8171.5 mg/L",702.4 mg/L and 559.3 mg/L
same,"Aqueous concentration, Extractant","[6]; Copper pipe, Mercury #2, initial 23950.0 mg/L",1820.0 mg/L and 2140.0 mg/L
same,"Aqueous concentration of mercury, Extraction","[6]; Copper pipe, Mercury #2, initial 28800.0 mg/L",2930.0 mg/L and 2800.0 mg/L
same,"Aqueous concentration of mercury, Extractant",[6]; Copper pipe,7368.1 mg/L and 6413.5 mg/L
same,"Aqueous concentration of mercury, Extractant",[6]; DIE pipe,187.6 mg/L and 179.1 mg/L
same,"Aqueous concentration of mercury, Extractant",[6]; DIO pipe,9532.2 mg/L and 7156.1 mg/L
same,"Aqueous concentration, Extractant","[6]; DIW pipe, Mercury #1, initial 8171.5 mg/L",684.6 mg/L and 914.1 mg/L
same,"Aqueous concentration of mercury, Extraction","[6]; DIW pipe, Mercury #2, initial 28800.0 mg/L",1520.0 mg/L and 2290.0 mg/L
same,"Aqueous concentration of mercury, Extractant",[6]; HDPE pipe,0.3 mg/L and 0.5 mg/L
same,"Aqueous concentration of mercury, Extraction","[6]; PVC pipe, Mercury #1, initial 7737.5 mg/L",1.6 mg/L and 2.6 mg/L
COP(=O)(OC)O/C(C)=C/C(=O)N(C)C [Dicrotophos],LD50,rat,Oral LD50 for rats is 16- 21 mg/kg.
same,time after which decomposed,[1]; at 75° C.,31 days
same,time after which decomposed,[1]; at 90° C.,7 days
same,storage stability,[1]; stored in glass or polythene containers up to 40° C.,stable
